Reference: ChEMBL document CHEMBL4806968, “Hipk inhibitors and methods of use thereof” (2020)

Tests used:
[1] = molecular target: Proto-oncogene tyrosine-protein kinase Src (Homo sapiens) (UniProt P12931); test: Inhibition of SRC (unknown origin) at 0.5 uM relative to control
[2] = molecular target: MAP kinase-interacting serine/threonine-protein kinase 1 (Homo sapiens) (UniProt Q9BUB5); test: Inhibition of MNK1 (unknown origin) at 0.5 uM relative to control
[3] = molecular target: Mitogen-activated protein kinase kinase kinase 10 (Homo sapiens) (UniProt Q02779); test: Inhibition of MLK2 (unknown origin) at 0.5 uM relative to control
Mitogen-activated protein kinase kinase kinase 10 (Homo sapiens), sequence (Q02779 whole entry, looked up): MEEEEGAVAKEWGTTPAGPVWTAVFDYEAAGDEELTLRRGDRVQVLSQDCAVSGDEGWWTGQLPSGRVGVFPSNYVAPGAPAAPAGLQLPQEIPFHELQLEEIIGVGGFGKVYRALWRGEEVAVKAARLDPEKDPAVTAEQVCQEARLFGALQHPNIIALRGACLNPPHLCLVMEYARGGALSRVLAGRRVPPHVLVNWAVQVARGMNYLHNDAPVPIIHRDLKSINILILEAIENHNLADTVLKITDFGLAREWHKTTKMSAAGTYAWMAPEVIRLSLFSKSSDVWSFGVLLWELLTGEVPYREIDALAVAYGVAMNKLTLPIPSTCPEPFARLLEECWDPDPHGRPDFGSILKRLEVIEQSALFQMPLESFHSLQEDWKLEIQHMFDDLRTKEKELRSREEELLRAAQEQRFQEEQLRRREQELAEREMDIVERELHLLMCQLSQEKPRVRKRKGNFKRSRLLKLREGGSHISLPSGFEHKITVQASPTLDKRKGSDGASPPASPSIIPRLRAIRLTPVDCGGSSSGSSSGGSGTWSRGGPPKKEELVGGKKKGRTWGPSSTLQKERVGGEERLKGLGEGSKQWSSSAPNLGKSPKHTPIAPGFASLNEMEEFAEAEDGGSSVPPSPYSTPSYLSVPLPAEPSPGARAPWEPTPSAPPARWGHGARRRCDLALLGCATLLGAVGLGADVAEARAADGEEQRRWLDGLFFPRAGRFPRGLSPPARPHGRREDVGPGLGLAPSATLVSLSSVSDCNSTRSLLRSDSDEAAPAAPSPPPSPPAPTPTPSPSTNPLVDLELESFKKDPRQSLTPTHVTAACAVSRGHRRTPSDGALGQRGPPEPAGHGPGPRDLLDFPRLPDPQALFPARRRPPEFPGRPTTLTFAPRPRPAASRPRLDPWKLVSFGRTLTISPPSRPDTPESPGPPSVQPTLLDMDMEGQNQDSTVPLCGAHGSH

Homo sapiens = organism: Homo sapiens; test: Inhibition of LYNA (unknown origin) at 0.5 uM relative to control

MAP kinase-interacting serine/threonine-protein kinase 1 (Homo sapiens), sequence (Q9BUB5 whole entry, looked up): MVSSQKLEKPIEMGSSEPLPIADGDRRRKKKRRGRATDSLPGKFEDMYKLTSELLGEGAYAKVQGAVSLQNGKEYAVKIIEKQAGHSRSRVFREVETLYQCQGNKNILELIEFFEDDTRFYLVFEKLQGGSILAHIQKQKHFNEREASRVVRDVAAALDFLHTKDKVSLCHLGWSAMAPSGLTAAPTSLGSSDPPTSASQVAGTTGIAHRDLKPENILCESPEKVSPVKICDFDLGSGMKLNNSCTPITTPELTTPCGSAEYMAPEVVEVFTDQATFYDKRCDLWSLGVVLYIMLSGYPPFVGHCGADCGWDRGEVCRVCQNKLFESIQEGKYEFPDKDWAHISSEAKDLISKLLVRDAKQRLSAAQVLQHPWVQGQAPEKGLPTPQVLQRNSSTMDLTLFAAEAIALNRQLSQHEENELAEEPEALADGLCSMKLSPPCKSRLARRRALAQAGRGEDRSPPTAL
Proto-oncogene tyrosine-protein kinase Src (Homo sapiens), sequence (P12931 2-536 limits assumed): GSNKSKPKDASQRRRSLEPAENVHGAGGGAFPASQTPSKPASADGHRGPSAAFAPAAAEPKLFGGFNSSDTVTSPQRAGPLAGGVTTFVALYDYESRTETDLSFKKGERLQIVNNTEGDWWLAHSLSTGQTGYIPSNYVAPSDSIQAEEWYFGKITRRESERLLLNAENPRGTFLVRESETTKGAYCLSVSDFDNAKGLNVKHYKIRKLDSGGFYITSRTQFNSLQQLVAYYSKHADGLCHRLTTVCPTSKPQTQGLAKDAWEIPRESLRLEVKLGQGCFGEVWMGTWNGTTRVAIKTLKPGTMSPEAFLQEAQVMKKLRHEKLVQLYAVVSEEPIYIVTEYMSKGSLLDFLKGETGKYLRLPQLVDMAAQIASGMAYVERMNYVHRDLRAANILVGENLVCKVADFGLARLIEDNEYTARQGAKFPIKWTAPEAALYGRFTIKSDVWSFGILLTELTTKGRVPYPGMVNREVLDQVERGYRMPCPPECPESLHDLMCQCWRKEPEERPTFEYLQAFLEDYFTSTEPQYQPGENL

In the case of `CNC(=O)c1cc(Oc2ccc(NC(=O)c3nc(SC)oc3-c3ccc(F)cc3)cc2F)ccn1`, the inhibition [1] is reported as 40%.
With `CNC(=O)c1cc(Oc2ccc(NC(=O)c3n[nH]nc3-c3ccc(F)cc3)cc2)ccn1` the inhibition [2] was 54%.
`CSc1nc(C(=O)Nc2ccc(Oc3cc4cnn(C)c4cc3Br)cc2)c(-c2ccc(F)cc2)o1` was tested, and the inhibition [3] was 21%.
For `CNC(=O)c1cc(Oc2ccc(NC(=O)c3nc(SC)[nH]c3-c3ccc(F)cc3)cc2)ccn1`, the inhibition (Homo sapiens) was 84%.
